Key:
Cal27 cells = experiment: 2-NBDG glucose uptake assay (flow cytometry), Cal27; assay type: cell-based; details: Cal27, 10 μM and 30 μM, 72 h, vs DMSO control
Description: (§1) FaDu and Cal27 cells were treated with test compounds (0.2 million cells per treatment) and were incubated for 1 h with 100 μM of 2-NBDG (Invitrogen, N13195), in glucose free medium, washed with ice-cold PBS, and re-suspended in 500 μL of PBS and maintained on ice to perform flow cytometric analyses within 30 min. The mean fluorescent intensity (MFI) readout reflects the amount of fluorescent glucose analog taken up by the cells, providing insight into their glucose uptake capacity. The percent (%) cell population positive for glucose uptake (shown with a right shift of the histogram peaks) were also plotted for both the cell lines. For MMP analysis, cells were incubated with 200 nM of TMRE (Invitrogen, T669) for 30 min. For each measurement, data was collected for 10,000 events using a BD FACS Aria III (Becton Dickinson, San Jose, CA) instrument.
(§2) 2-[N-(7-Nitrobenz-2-oxa-1,3-diaxol-4-yl) amino]-2-deoxyglucose (2-NBDG) uptake into cells happens via glucose transporters and post uptake 2-NBDG gets phosphorylated by hexokinases. Since cancer cells represent higher glycolytic activity, the inhibition of HK2 activity in cancer cells is actively reflected in the inhibition of 2-NBDG uptake ([Hung et al., 2022]; [Li et al., 2022]). […] In this assay, the MFI of intracellular 2-NBDG serves as a quantitative measure of cellular glucose uptake. […] This finding is further supported by the increased % population of 2-NBDG positive cells in Cal27 cells compared to FaDu cells (Figure 3).

[1] = tested on: EGFR tyrosine kinase receptor phosphorylation; parameters: method as in Chakraborty et al., 2022; details: 10 µM, 72 h of treatment; ref Chakraborty et al., 2022; cited from earlier work
FaDu cells [2] = experiment: Annexin V FITC / propidium iodide apoptosis assay, FaDu; assay type: cell-based; details: 10 and 30 μM, 72 h
Description: FaDu and Cal27 cells were treated with the test compounds (0.5 million cells per treatment) for 72 h, and harvested for cell cycle analysis (Cat# BD340242) and apoptosis analysis (Cat# BD556547) by flow cytometry according to manufacturer’s instructions.
To determine the effect of HK2 inhibition in the progression of the cell cycle, flow cytometric analysis of compound-treated FaDu and Cal27 cells was carried out 72 h post-treatment. Cell cycle analysis is carried out to quantify the DNA content and estimate the percentages of the cell population in different cell cycle phases via propidium iodide staining. […] To determine the apoptosis-inducing activity of HK2 inhibitors, 10 and 30 μM of compounds H2 and H10 treated FaDu and Cal27 cells were stained with annexin V conjugated with FITC, followed by propidium iodide staining.

Cal27 spheroids = experiment: 3D spheroid culture of Cal27 cells; assay type: cell-based
Description: Cal27 cells were seeded at a density of 10,000 cells per well in a 96-well plate coated with 1.5% agarose in incomplete medium. For the prophylactic treatment, medium containing the compounds was added to each well after 6 h of seeding. For treatment, compounds were added after 48 h of seeding. After incubation with the compounds, spheroids were imaged using phase-contrast microscopy to assess the morphology and size. Subsequently, the spheroids were pooled and dissociated into single cell suspension with trypsin for 10 min, washed with PBS and stained with propidium iodide (Cat# BD556547) to analyze the number of apoptotic cells using flow cytometry. For the analysis of spheroid images, each image was processed using ImageJ software where the threshold of each 8-bit image was adjusted to differentiate the darker spheroid area (the inner core) from the lighter spheroid area (the peripheral layers). Subsequently, the darker and lighter areas were measured in pixel square units using the ‘analyze particles’ option in ImageJ.
Cells plated in monolayer cultures might behave differently as compared to 3D cultures. The 3D cultures can better mimic the tumor development and serve as a better tool for drug screening ([Zanoni et al., 2016]). Therefore, spheroid cultures of Cal27 cells were prepared and treated with lead H2. […]

FaDu cells [3] = experiment: 2-NBDG glucose uptake assay (flow cytometry), FaDu; assay type: cell-based; details: 10 μM and 30 μM, 72 h, vs DMSO control
Description: as §1, §2

[4] = tested on: mitochondrial HK2 (mitoHK2) in Cal27 cells; experiment: Western blot fractionation, mitoHK2 dissociation; assay type: cell-based; details: 4 h
Description: Cal27 cells were treated with the test compound (1 million cells per treatment for 4 h) and were processed for mitochondria isolation using a homogenization buffer containing 210 mM mannitol, 70 mM sucrose, 5 mM tris-HCl, (pH 7.5) and 1 mM EDTA (pH 7.5). The cell pellet was sheared with a total of 90 strokes in the homogenization buffer in a span of 1 h on ice. The lysate was centrifuged at 800 rpm for 10 min and the mitochondria enriched supernatant was isolated. The pellet was again lysed using RIPA lysis buffer to obtain the cytosolic fraction. The mitochondrial fractions and the cytosolic fractions were loaded on a 10% SDS-PAGE gel. The antibodies used were anti-HK2 antibody (CST, Cat#2867), anti β-actin antibody (CST, Cat#4970) and mitochondrial marker anti-VDAC antibody (CST, Cat# 4661). The whole cell lysates were obtained using RIPA lysis buffer alone. The quantifications were performed using ImageJ software.
Mitochondria utilize the oxidizable substrates to produce a membrane potential as the proton gradient ([Sivandzade et al., 2019]). […] To determine the change in MMP post-treatment with HK2 inhibitors, the cells were treated with 200 nM of TMRE (tetramethyl rhodamine ethyl ester, a cell-permeant cationic dye readily sequestered by active mitochondria) and flow cytometric analyses of TMRE uptake was carried out. […]

COc1ccc(CNC(=O)c2nc3ccccc3s2)cc1O [Compound 14, N-(3-hydroxy-4methoxybenzyl)benzo[d]thiazole-2-carboxamide]
2-NBDG MFI (Cal27 cells): significant reduction
phosphorylation of the EGFR tyrosine kinase receptor [1]: inhibits the phosphorylation
apoptosis-inducing activity (FaDu cells [2]): late apoptotic and necrotic effects
spheroid growth (Cal27 spheroids; prophylactic and therapeutic treatment): reduction of spheroid growth
population of dead cells in spheroids (Cal27 spheroids; propidium iodide staining at the end of the study): increase in the population of dead cells
2-NBDG MFI (FaDu cells [3]): significant reduction
mitochondrial HK2 (mitoHK2) dissociation ([4]; Cal27, 30 μM): induced the dissociation of mitoHK2
expression of total HK2 protein ([4]; Cal27 whole cell lysate, 30 μM): without altering the expression of total HK2 protein

— publication PMC10961359, “Targeting hexokinase 2 for oral cancer therapy: structure-based design and validation of lead compounds” (Frontiers in Pharmacology, 2024)
